Experimental data published in publication PMC8370991, “Structural basis for the inhibition of HTLV-1 integration inferred from cryo-EM deltaretroviral intasome structures” (Nature Communications, 2021).
Read-outs that look alike come from different tables or passages of the source.

How the values were obtained:
recombinant HTLV-1 IN [1] = biological target: T1, recombinant HTLV-1 IN (Human T-cell leukemia virus 1, UniProt P03362); assay: In vitro integration strand transfer assay with HTLV-1 IN; assay type: biochemical; settings: INSTI at 634 nM
T1 construct: made in house
In short: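 Recombinant HTLV-1 IN (4 μg) with annealed 3′-processed LTR donor DNA (0.53 μM) preincubated 15 min RT with compound (screen at 634 nM) in PIPES pH 6.0, NaCl, MgCl2, ZnCl2, DTT; supercoiled plasmid target added, 1 h 37 °C. Concerted integration product quantified by agarose-gel densitometry; IC50 from dose–response fits, triplicate.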

STLV-1 IN (WT) = assay: In vitro strand transfer assay with wild-type STLV-1 IN; assay type: biochemical; design: STLV-1 WT strand transfer activity: unit not given here
Description: (§1) For STLV-1 IN, the reaction conditions were 25 mM BTP-HCl pH 6, 0.1 μM STLV-1 IN, 2 μM vDNA, 60 mM NaCl, 13.28 mM DTT, 10 mM MgCl2, 10 μM ZnCl2. STLV-1 IN and LEDGF/ΔIBD-B56γ were co-incubated at the above conditions at a 2:1 molar ratio, at 4 °C for 30 min. Donor vDNA was then added and the mixture was co-incubated at 37 °C for 10 min. For INSTI dose–response experiments, either the INSTI or DMSO control was then added, the sample was mixed and kept at 4 °C for an additional 15 min. Strand-transfer reactions were initiated by the addition of 300 ng of pGEM-9Zf(-) supercoiled plasmid DNA and stopped after 15 min of 37 °C incubation by adding 0.5% SDS and 25 mM EDTA, pH 8.0.
(§2) Proteins were degraded by incubation with 30 μg of proteinase K (Roche) at 37 °C for 1 h. DNA was precipitated at −20 °C overnight in the presence of ethanol supplemented with 20 μg of glycogen and then resuspended in 1.5× agarose loading dye. The DNA products were separated by electrophoresis through 1.5% agarose gel and stained with ethidium bromide and imaged using the BioRad GelDox XR + imager. The data were analysed and the IC50 calculated as previously described. In brief, the DNA band that corresponds to the concerted integration product was quantified by densitometry in ImageLab 4.1 (Bio-Rad). All experiments were done in triplicate. Quantified data points were fitted to dose–response curves in Prism 9. The cumulative standard deviation for each drug was calculated as an average of the upper limit and lower limit values: Lowerlimit=IC50/10^logSE(IC50) Upperlimit=IC50×10^logSE(IC50)

STLV-1 IN(A219E) = assay: In vitro strand transfer assay with STLV-1 IN(A219E); assay type: biochemical; design: STLV-1 A219E strand transfer activity: unit not given here
Description: as §1, §2

recombinant HTLV-1 IN [2] = biological target: T1, recombinant HTLV-1 IN; settings: previously obtained values, cited from earlier work
HTLV-1 = settings: cited from earlier work
HIV-1 = settings: cited from earlier work
[3] = log10 concentration -3.69897, column 1 of 3
[4] = log10 concentration -3.69897, column 2 of 3
[5] = log10 concentration -4.69897, column 1 of 3
[6] = log10 concentration -4.69897, column 2 of 3
[7] = log10 concentration -5.69897, column 1 of 3
[8] = log10 concentration -5.69897, column 2 of 3
[9] = log10 concentration -6.19791, column 1 of 3
[10] = log10 concentration -6.19791, column 2 of 3
[11] = log10 concentration -6.69897, column 1 of 3
[12] = log10 concentration -6.69897, column 2 of 3
[13] = log10 concentration -7.19791, column 1 of 3
[14] = log10 concentration -7.19791, column 2 of 3
[15] = log10 concentration -7.69897, column 1 of 3
[16] = log10 concentration -7.69897, column 2 of 3
[17] = log10 concentration -8.69897, column 1 of 3
[18] = log10 concentration -8.69897, column 2 of 3
[19] = log10 concentration -10.699, column 1 of 3
[20] = log10 concentration -10.699, column 2 of 3

T1 sequence (P03362 1168-1462): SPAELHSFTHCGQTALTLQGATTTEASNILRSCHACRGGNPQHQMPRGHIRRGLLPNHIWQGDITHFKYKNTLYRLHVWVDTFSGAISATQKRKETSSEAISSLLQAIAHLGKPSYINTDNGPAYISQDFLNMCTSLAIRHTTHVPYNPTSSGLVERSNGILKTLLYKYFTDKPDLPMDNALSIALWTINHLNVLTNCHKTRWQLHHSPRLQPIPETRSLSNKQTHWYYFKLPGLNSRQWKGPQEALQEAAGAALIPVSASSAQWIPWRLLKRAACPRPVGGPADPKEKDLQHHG

## Cc1nnc(C(=O)NC(C)(C)c2nc(C(=O)NCc3ccc(F)cc3)c(O)c(=O)n2C)o1 [Raltegravir]
Recombinant HTLV-1 IN [1]; Replicate 1
  HTLV-1 IN strand transfer activity (No drug = 100): 34.4506%
Recombinant HTLV-1 IN [1]; Replicate 2
  HTLV-1 IN strand transfer activity (No drug = 100): 36.5909%
STLV-1 IN (WT); Supplementary Fig. 9
  sensitivity of STLV-1 IN to the inhibitor: highly sensitive
STLV-1 IN (WT); log10 concentration -3.69897
  STLV-1 WT strand transfer activity: 15.0259
STLV-1 IN (WT); [3]
  STLV-1 WT strand transfer activity: 3.382
STLV-1 IN (WT); [4]
  STLV-1 WT strand transfer activity: 1.339
STLV-1 IN (WT); log10 concentration -4.69897
  STLV-1 WT strand transfer activity: 15.0259
STLV-1 IN (WT); [5]
  STLV-1 WT strand transfer activity: 1.932
STLV-1 IN (WT); [6]
  STLV-1 WT strand transfer activity: 3.125
STLV-1 IN (WT); log10 concentration -5.69897
  STLV-1 WT strand transfer activity: 25.9067
STLV-1 IN (WT); [7]
  STLV-1 WT strand transfer activity: 14.0097
STLV-1 IN (WT); [8]
  STLV-1 WT strand transfer activity: 13.3929
STLV-1 IN (WT); log10 concentration -6.19791
  STLV-1 WT strand transfer activity: 38.342
STLV-1 IN (WT); [9]
  STLV-1 WT strand transfer activity: 20.7729
STLV-1 IN (WT); [10]
  STLV-1 WT strand transfer activity: 15.625
STLV-1 IN (WT); log10 concentration -6.69897
  STLV-1 WT strand transfer activity: 40.9326
STLV-1 IN (WT); [11]
  STLV-1 WT strand transfer activity: 26.57
STLV-1 IN (WT); [12]
  STLV-1 WT strand transfer activity: 43.3036
STLV-1 IN (WT); log10 concentration -7.19791
  STLV-1 WT strand transfer activity: 63.2124
STLV-1 IN (WT); [13]
  STLV-1 WT strand transfer activity: 62.3188
STLV-1 IN (WT); [14]
  STLV-1 WT strand transfer activity: 68.75
STLV-1 IN (WT); log10 concentration -7.69897
  STLV-1 WT strand transfer activity: 94.3005
STLV-1 IN (WT); [15]
  STLV-1 WT strand transfer activity: 86.4734
STLV-1 IN (WT); [16]
  STLV-1 WT strand transfer activity: 94.1964
STLV-1 IN (WT); log10 concentration -8.69897
  STLV-1 WT strand transfer activity: 91.7098
STLV-1 IN (WT); [17]
  STLV-1 WT strand transfer activity: 100.483
STLV-1 IN (WT); [18]
  STLV-1 WT strand transfer activity: 99.1071
STLV-1 IN (WT); log10 concentration -9.69897
  STLV-1 WT strand transfer activity: 106.218
STLV-1 IN (WT); log10 concentration -9.69897, column 1 of 3
  STLV-1 WT strand transfer activity: 101.449
STLV-1 IN (WT); log10 concentration -9.69897, column 2 of 3
  STLV-1 WT strand transfer activity: 100.446
STLV-1 IN (WT); log10 concentration -10.699
  STLV-1 WT strand transfer activity: 100.518
STLV-1 IN (WT); [19]
  STLV-1 WT strand transfer activity: 102.415
STLV-1 IN (WT); [20]
  STLV-1 WT strand transfer activity: 99.5536
STLV-1 IN(A219E); Supplementary Fig. 9
  IC50 with STLV-1 IN A219E compared with wild-type STLV-1 IN: nearly identical
STLV-1 IN(A219E); log10 concentration -3.69897
  STLV-1 A219E strand transfer activity: 4.375
STLV-1 IN(A219E); [3]
  STLV-1 A219E strand transfer activity: 11.7647
STLV-1 IN(A219E); [4]
  STLV-1 A219E strand transfer activity: 5.393
STLV-1 IN(A219E); log10 concentration -4.69897
  STLV-1 A219E strand transfer activity: 6.875
STLV-1 IN(A219E); [5]
  STLV-1 A219E strand transfer activity: 7.843
STLV-1 IN(A219E); [6]
  STLV-1 A219E strand transfer activity: 4.103
STLV-1 IN(A219E); log10 concentration -5.69897
  STLV-1 A219E strand transfer activity: 7.8125
STLV-1 IN(A219E); [7]
  STLV-1 A219E strand transfer activity: 11.7647
STLV-1 IN(A219E); [8]
  STLV-1 A219E strand transfer activity: 9.8476
STLV-1 IN(A219E); log10 concentration -6.19791
  STLV-1 A219E strand transfer activity: 12.6562
STLV-1 IN(A219E); [9]
  STLV-1 A219E strand transfer activity: 16.6667
STLV-1 IN(A219E); [10]
  STLV-1 A219E strand transfer activity: 12.4267
STLV-1 IN(A219E); log10 concentration -6.69897
  STLV-1 A219E strand transfer activity: 25.4688
STLV-1 IN(A219E); [11]
  STLV-1 A219E strand transfer activity: 27.9412
STLV-1 IN(A219E); [12]
  STLV-1 A219E strand transfer activity: 28.136
STLV-1 IN(A219E); log10 concentration -7.19791
  STLV-1 A219E strand transfer activity: 49.375
STLV-1 IN(A219E); [13]
  STLV-1 A219E strand transfer activity: 64.2157
STLV-1 IN(A219E); [14]
  STLV-1 A219E strand transfer activity: 59.4373
STLV-1 IN(A219E); log10 concentration -7.69897
  STLV-1 A219E strand transfer activity: 90.625
STLV-1 IN(A219E); [15]
  STLV-1 A219E strand transfer activity: 108.333
STLV-1 IN(A219E); [16]
  STLV-1 A219E strand transfer activity: 86.2837
STLV-1 IN(A219E); log10 concentration -8.69897
  STLV-1 A219E strand transfer activity: 101.406
STLV-1 IN(A219E); [17]
  STLV-1 A219E strand transfer activity: 107.843
STLV-1 IN(A219E); [18]
  STLV-1 A219E strand transfer activity: 97.5381
STLV-1 IN(A219E); log10 concentration -10.699
  STLV-1 A219E strand transfer activity: 97.9688
STLV-1 IN(A219E); [19]
  STLV-1 A219E strand transfer activity: 103.922
STLV-1 IN(A219E); [20]
  STLV-1 A219E strand transfer activity: 99.8828
Recombinant HTLV-1 IN [2]; Replicate 1, read-out: HTLV-1 IN strand transfer IC50
  IC50: 477 nM
Recombinant HTLV-1 IN [2]; Replicate 2, read-out: HTLV-1 IN strand transfer IC50
  IC50: 425 nM
Recombinant HTLV-1 IN [2]; Replicate 3, read-out: HTLV-1 IN strand transfer IC50
  IC50: 344 nM
Recombinant HTLV-1 IN [2]; integrase strand-transfer, read-out: HTLV-1 IC50 ± stdev
  IC50: 410 ± 78.5 nM
HTLV-1; MT-2-Jurkat cell-to-cell infection, read-out: HTLV-1 EC50
  EC50: 6.42 ± 4.24 nM
HTLV-1; Replicate 1, previously reported values, read-out: HTLV-1 infection EC50
  EC50: 7.85 nM
HTLV-1; Replicate 2, previously reported values, read-out: HTLV-1 infection EC50
  EC50: 8.18 nM
HTLV-1; Replicate 3, previously reported values, read-out: HTLV-1 infection EC50
  EC50: 4.08 nM
HIV-1; HIV-1 infection model, supplementary ref 18, read-out: HIV-1 EC50 ± stdev
  EC50: 9.4 ± 1.4 nM
HIV-1; previously reported, read-out: EC50, infection by wild-type HIV-1
  EC50: 4 ± 2 nM
